Assays:
[1] = In vitro DOX release study (dialysis); assay type: physicochemical; details: 96 hours, either pH
Experimental: An in vitro DOX release study was also performed wherein D-LMNs, M-LMNs, and free DOX were each dispersed in 1 ml PBS buffer containing 1% Tween 20 (pH 7.3 or pH 5.1) and placed in a dialysis membrane (MWCO of 12000-14000 Da), The bag was then immersed in a tube containing 10 mL of the same PBS buffer ([…] or pH 5.1) and incubated at 37° C. At specific time intervals the DOX content in the PBS was analyzed using the UV-VIS spectrophotometer at 485 nm. Samples were all done in triplicate. M-LMNs were used as a blank. The release of the encapsulated DOX from D-LMNs was determined at pH 7.3, which is the physiological pH, and at pH 5.1, which represents the acidic pH inside endosomes, lysosomes, and solid tumors. One percent Tween 20 was used because it forms hydrophobic pockets, which can stabilize the released DOX from the D-LMNs, and helps to avoid aggregation of the hydrophobic DOX in the aqueous environment.

HEK293 cells = details: cells incubated with free DOX, literature; cited from earlier work

- DOX released [1]: more than 90%
Compound: COc1cccc2c1C(=O)c1c(O)c3c(c(O)c1C2=O)C[C@@](O)(C(=O)CO)C[C@@H]3O[C@H]1C[C@H](N)[C@H](O)[C@H](C)O1.Cl [free DOX, doxorubicin hydrochloride]
- location of DOX in cells (HEK293 cells): found in the nuclei intercalated with DNA
